Measurements published in US8536120B2 (The Administrators of The Tulane Educational Fund, priority 2006, dated 2013).
Where “and” joins values, the source holds several entries; their conditions need not be identical. Equal values may be shown once. Values belong to the compound of their own block, whether it stands above or below them. Where no end group is shown, it is not given here. [ ]: non-standard residue; d: D form. d2Nal = N[C@H](Cc1ccc2ccccc2c1)C(=O)O

Columns and labels:
[1] = target: T1, Ghrelin/GHRP/GHS Receptor (Rattus norvegicus, UniProt O08725); experiment: In vitro cell culture method: GH release from cell culture of pituitary cells, peptide alone or plus stimulator; format: cell-based; set-up: from cell culture of pituitary cells; endogenous in cells; host or cells: dispersed primary rat anterior pituitary cells, 4 days in culture; details: for GH release, first line of entry (mark P + S): stimulator 1 ng/ml; for Unstimulated Basal GH release: Table 8
Method: (§1) The peptides were synthesized by the solid phase method and purified by HPLC. GH was determined by Radioimmunoassay (RIA).
In vitro GH Release-Female rats of the CD-1 strain were housed in a constant temperature room at 24° C. with 14 h light and 10 h darkness. The rats were fed Purina Rat chow and water at libitum. All studies were started between 0800-1000 hours. Pituitaries of mature female Sprague Dawley rats were rapidly removed after decapitation, neurointermediate lobe discarded and then placed in a pH 7.4 buffer. The pituitaries were cut into ˜3-mm pieces and then transferred to a flask containing HEPS buffer with trypsin and incubated at 37° C. Cells were triturated several times during this period. After dispersion, the cells were collected by centrifugation, wash with DMEM and placed into culture well. Cell cultures were maintained for 4 days at 37° with 8% CO2 added to the incubator atmosphere. After 4 days in culture, cells were washed with lactated Ringer's solution adjusted to pH 7.2-7.4 and then vehicle, peptide alone or peptide plus stimulator was added to media. Incubation time was 60-120 minutes after which media was removed from each well for GH determination. The GH RIA reagents were distributed by the NIH. Control data was collected from cell cultures treated with only the corresponding vehicle in the absence of peptide or stimulator. Control stimulated data was collected from cell cultures treated with stimulator alone in the absence of any peptide.

[2] = target: T1, Ghrelin/GHRP/GHS Receptor; experiment: In vivo assay of GH release in rat, i.v. peptide alone or plus stimulator, serum GH by RIA
Method: as §1
For the in vivo assay of GH Release in rat, immature female Sprague Dawley rats were obtained from Charles River from Wilmington, Mass. After arrival they were housed at 25° C. with a 14:10 h light:dark cycle. Water and Purina rat chow were available at libitum. Pups were weaned at 21 days of age.
Immature twenty six day old female Sprague Dawley rats, 3-6 rats per treatment dose, were pretreated with pentobarbital 20 minutes before iv injection of vehicle/peptide or peptide plus stimulator. Injection was made as a 0.1 ml solution. For the non-pentobarbital treated rat assay, peptides were administered iv into the tail vein of conscious rats. All animals were sacrificed by guillotine after iv peptide or vehicle. Trunk blood was collected at +10-15 minutes […], allowed to clot, centrifuged and serum stored until assayed for GH levels by RIA. The GH RIA reagents were distributed by the NIH. Control data was collected from rats treated with only the corresponding vehicle in the absence of peptide or stimulator. Control stimulated data was collected from rats treated with stimulator alone in the absence of any peptide.

T1 sequence (O08725 whole entry): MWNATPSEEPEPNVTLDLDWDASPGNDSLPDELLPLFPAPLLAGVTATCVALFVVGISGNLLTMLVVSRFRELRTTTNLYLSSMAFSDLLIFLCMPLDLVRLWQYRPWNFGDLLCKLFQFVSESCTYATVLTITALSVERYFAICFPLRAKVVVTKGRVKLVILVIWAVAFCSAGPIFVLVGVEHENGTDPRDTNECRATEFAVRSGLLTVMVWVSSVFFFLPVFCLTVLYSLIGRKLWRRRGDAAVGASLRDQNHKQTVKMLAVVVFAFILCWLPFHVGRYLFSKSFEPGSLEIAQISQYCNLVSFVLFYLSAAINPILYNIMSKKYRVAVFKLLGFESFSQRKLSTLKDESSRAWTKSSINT

Compound: [dA][d2Nal]AW[dF]K-NH2 [reference compound]
Stimulated Control GH release ([1]; Table 6, stimulator DAla-DβNal-Ala-Trp-DPhe-Lys-NH2 alone 10 ng/ml): 2420 ± 0 ng/mL and 2811 ± 229 ng/mL and 2385 ± 8 ng/mL
Stimulated Control GH release ([1]; Table 9, stimulator DAla-DβNal-Ala-Trp-DPhe-Lys-NH2 alone 1 ng/ml): 1232 ± 34 ng/mL
Stimulated Control GH release ([1]; Table 10, stimulator DAla-DβNal-Ala-Trp-DPhe-Lys-NH2 alone 1 ng/ml): 905 ± 6 ng/mL and 1153 ± 36 ng/mL and 1216 ± 26 ng/mL and 1461 ± 58 ng/mL and 1016 ± 18 ng/mL and 859 ± 4 ng/mL and 1060 ± 24 ng/mL
Stimulated Control GH release ([1]; Table 11, stimulator DAla-DβNal-Ala-Trp-DPhe-Lys-NH2 alone 1 ng/ml): 905 ± 6 ng/mL and 947 ± 11 ng/mL and 947 ± 33 ng/mL and 1016 ± 18 ng/mL
Stimulated Control GH ([2]; Table 2, stimulator DAla-DβNal-Ala-Trp-DPhe-Lys-NH2 alone 0.3 μg, rat): 2253 ± 252 ng/mL and 1412 ± 400 ng/mL
Stimulated Control GH ([2]; Table 2, stimulator DAla-DβNal-Ala-Trp-DPhe-Lys-NH2 alone 1 μg, rat): 3214 ± 276 ng/mL and 3105 ± 429 ng/mL and 2406 ± 288 ng/mL and 2825 ± 134 ng/mL and 3104 ± 429 ng/mL
Stimulated Control GH ([2]; Table 4, Non-Pentobarbital Rats, stimulator DAla-DβNal-Ala-Trp-DPhe-Lys-NH2 alone 10 μg): 72 ± 9 ng/mL
Stimulated Control GH ([2]; Table 4, Pentobarbital Rats, stimulator DAla-DβNal-Ala-Trp-DPhe-Lys-NH2 alone 1 μg): 4950 ± 98 ng/mL

Compound: CC(=O)N[C@@H](COCc1ccccc1)C(=O)N[C@@H](CCCCN)C(=O)N[C@H](Cc1c[nH]c2ccccc12)C(=O)N1CCC(c2ccccc2)CC1 [(S)—N—((R)-3-(1H-indol-3-yl)-1-oxo-1-(4-phenylpiperidin-1-yl)propan-2-yl)-2-((S)-2-acetamido-3-(benzyloxy)propanamido)-6-aminohexanamide]
GH release, first line of entry (mark P + S) ([1]; Table 11, 1 μg/ml): 680 ± 13 ng/mL
GH release, first line of entry (mark P + S) ([1]; Table 11, 3 μg/ml): 489 ± 41 ng/mL
GH release, first line of entry (mark P + S) ([1]; Table 11, 10 μg/ml): 245 ± 16 ng/mL

Compound: CC(=O)NCCCC[C@H](NC(=O)[C@@H](N)COCc1ccccc1)C(=O)N[C@@H](Cc1c[nH]c2ccccc12)C(=O)N1CCC(c2ccccc2)CC1 [(S)—N—((S)-3-(1H-indol-3-yl)-1-oxo-1-(4-phenylpiperidin-1-yl)propan-2-yl)-6-acetamido-2-((S)-2-amino-3-(benzyloxy)propanamido)hexanamide]
GH release, second line of entry (no mark) ([1]; Table 10, 10 μg/ml): 571 ± 32 ng/mL
GH release, first line of entry (mark P + S) ([1]; Table 10, 10 μg/ml): 388 ± 41 ng/mL
GH release, second line of entry (no mark) ([1]; Table 10, 30 μg/ml): 399 ± 24 ng/mL
GH release, first line of entry (mark P + S) ([1]; Table 10, 30 μg/ml): 273 ± 39 ng/mL

Compound: NCC[C@H](N)C(=O)N[C@H](COCc1ccc2ccccc2c1)C(=O)N1CCC(c2ccccc2)CC1 [(S)-2,4-diamino-N—((R)-3-(naphthalen-2-ylmethoxy)-1-oxo-1-(4-phenylpiperidin-1-yl)propan-2-yl)butanamide]
GH release, second line of entry (no mark) ([1]; Table 11, 10 μg/ml): 644 ± 33 ng/mL
GH release, first line of entry (mark P + S) ([1]; Table 11, 10 μg/ml): 794 ± 34 ng/mL
GH release, second line of entry (no mark) ([1]; Table 11, 30 μg/ml): 529 ± 20 ng/mL
GH release, first line of entry (mark P + S) ([1]; Table 11, 30 μg/ml): 504 ± 20 ng/mL

Compound: C=C(C)CON=C(c1ccccc1)c1ccccc1 [O-(2-methylallyl) benzophonone oxime, O-(2-methylallyl)benzophenone oxime]
GH release, second line of entry (no mark) ([1]; Table 10, 10 μg/ml): 1281 ± 58 ng/mL
GH release, first line of entry (mark P + S) ([1]; Table 10, 10 μg/ml): 929 ± 28 ng/mL
GH release, second line of entry (no mark) ([1]; Table 10, 30 μg/ml): 699 ± 53 ng/mL
GH release, first line of entry (mark P + S) ([1]; Table 10, 30 μg/ml): 616 ± 23 ng/mL

Compound: COc1ccccc1C1CCN(C(=O)[C@@H](Cc2c[nH]c3ccccc23)NC(=O)C(C)(C)N)CC1 [(R)—N-(3-(1H-indol-3-yl)-1-(4-(2-methoxyphenyl)piperidin-1-yl)-1-oxopropan-2-yl)-2-amino-2-methylpropanamide]
GH release, second line of entry (no mark) ([1]; Table 11, 10 μg/ml): 441 ± 21 ng/mL
GH release, first line of entry (mark P + S) ([1]; Table 11, 10 μg/ml): 365 ± 2 ng/mL
GH release, second line of entry (no mark) ([1]; Table 11, 30 μg/ml): 384 ± 16 ng/mL
GH release, first line of entry (mark P + S) ([1]; Table 11, 30 μg/ml): 375 ± 30 ng/mL

Continued, values first:

Unstimulated Basal GH release ([1]; peptide 1 μg/ml): 286 ± 75 ng/mL
Unstimulated Basal GH release ([1]; peptide 3 μg/ml): 177 ± 44 ng/mL
Unstimulated Basal GH release ([1]; peptide 10 μg/ml): 271 ± 38 ng/mL
Unstimulated Basal GH release ([1]; peptide 30 μg/ml): 376 ± 28 ng/mL
Compound: DAla-DcyclohexylAla-Ala-Ala-Phe-DPhe-Nle-NH2

GH release, second line of entry (no mark) ([1]; Table 10, 1 μg/ml): 654 ± 18 ng/mL
GH release, first line of entry (mark P + S) ([1]; Table 10, 1 μg/ml): 338 ± 3 ng/mL
GH release, second line of entry (no mark) ([1]; Table 10, 3 μg/ml): 442 ± 4 ng/mL
GH release, first line of entry (mark P + S) ([1]; Table 10, 3 μg/ml): 204 ± 10 ng/mL
GH release, second line of entry (no mark) ([1]; Table 10, 10 μg/ml): 537 ± 28 ng/mL and 648 ± 16 ng/mL
GH release, first line of entry (mark P + S) ([1]; Table 10, 10 μg/ml): 262 ± 4 ng/mL and 136 ± 11 ng/mL
GH release, second line of entry (no mark) ([1]; Table 10, 30 μg/ml): 309 ± 46 ng/mL
GH release, first line of entry (mark P + S) ([1]; Table 10, 30 μg/ml): 118 ± 8 ng/mL
Compound: COc1ccccc1N1CCN(C(=O)c2cc3ccccc3cc2C(=O)N2CCN(c3ccccc3OC)CC2)CC1 [naphthalene-2,3-diylbis((4-(2-methoxyphenyl)piperazin-1-yl)methanone)]
